Values joined by “and” are separate entries in the source; they are usually repeats but may differ in a detail not shown here. Equal entries are not always repeated.
Tested on: serum uric acid
Experiment: Multi-dose Phase I clinical trial, serum uric acid (sUA), once daily for 10 days
Format: in vivo, human
Settings: for % sUA change (from baseline), Mean (3-11) / Absolute sUA concentration, Mean (3-11): group 9, 10 mg once daily for 10 days, mean of subjects 3-11; for % sUA change (from baseline), Mean (4-12) / Absolute sUA concentration, Mean (4-12) / Absolute sUA concentration: group 7, 1 mg once daily for 10 days; for % sUA change (from baseline), Mean (4-12) / Absolute sUA concentration, Mean (4-12): mean of subjects 4-12; for Absolute sUA concentration: individual subjects 4-12
From the text: A Phase 1, Randomized, Double-Blind, Placebo-Controlled Study to Evaluate Safety, Tolerability, Pharmacokinetics and Preliminary Food Effect of Multiple Rising Doses of a URAT1 Inhibitor, in Healthy Adult Male Volunteers.
Fasted subjects receive oral doses of active or placebo, once daily, for 10 days, at the following doses:
36 subjects in 3 dose groups, 12 subjects/group, are randomized […] to receive active (9/group) or placebo ([…]). All study procedures are the same regardless of whether subject receives active or placebo. Total duration of subject participation, including screening period, is ˜2-4 weeks, and the total volume of blood collected from each subject during the entire study <500 mL, (less than typically collected during a volunteer blood donation).
5 mg, active and placebo, tablets packaged in 35 count HDPE bottles, stored at controlled room temperature (15-30° C.). Placebo tablets are designed to match the active tablets—identical size, form, taste, and color, and containing the same excipients. 1 mg doses were administered as oral solutions.
Subjects dosed in the morning of Days 1-10 with ˜240 mL of room temp water.
Urine, serum and plasma samples collected periodically
PD samples frozen (−20° C.) and stored; all samples from a given subject assayed in a single analytical run.

Structure (SMILES): CC(C)(Sc1ccncc1-c1ccc(C#N)c2ccccc12)C(=O)O [2-((3-(4-cyanonaphthalen-1-yl)pyridin-4-yl)thio)-2-methylpropanoic acid]
- % sUA change (from baseline), Mean (3-11) (Time 0 (baseline)): 0%
- Absolute sUA concentration, Mean (3-11) (Time 0 (baseline)): 6.4 mg/dL
- % sUA change (from baseline), Mean (3-11) (Time 6): −30.2%
- Absolute sUA concentration, Mean (3-11) (Time 6): 4.5 mg/dL
- % sUA change (from baseline), Mean (3-11) (Time 12): −36.8%
- Absolute sUA concentration, Mean (3-11) (Time 12): 4.1 mg/dL
- % sUA change (from baseline), Mean (3-11) (Time 24): −32.0%
- Absolute sUA concentration, Mean (3-11) (Time 24): 4.4 mg/dL
- % sUA change (from baseline), Mean (3-11) (Time 48): −35.0%
- Absolute sUA concentration, Mean (3-11) (Time 48): 4.1 mg/dL
- % sUA change (from baseline), Mean (3-11) (Time 72): −49.7%
- Absolute sUA concentration, Mean (3-11) (Time 72): 3.2 mg/dL
- % sUA change (from baseline), Mean (3-11) (Time 96): −53.7%
- Absolute sUA concentration, Mean (3-11) (Time 96): 3.0 mg/dL
- % sUA change (from baseline), Mean (3-11) (Time 102): −55.2%
- Absolute sUA concentration, Mean (3-11) (Time 102): 2.9 mg/dL
- % sUA change (from baseline), Mean (3-11) (Time 108): −57.2%
- Absolute sUA concentration, Mean (3-11) (Time 108): 2.7 mg/dL
- % sUA change (from baseline), Mean (3-11) (Time 120): −47.0%
- Absolute sUA concentration, Mean (3-11) (Time 120): 3.4 mg/dL
- % sUA change (from baseline), Mean (3-11) (Time 144): −44.3%
- Absolute sUA concentration, Mean (3-11) (Time 144): 3.5 mg/dL
- % sUA change (from baseline), Mean (3-11) (Time 168): −49.6%
- Absolute sUA concentration, Mean (3-11) (Time 168): 3.2 mg/dL
- % sUA change (from baseline), Mean (3-11) (Time 192): −55.8%
- Absolute sUA concentration, Mean (3-11) (Time 192): 2.8 mg/dL
- % sUA change (from baseline), Mean (3-11) (Time 216): −51.3%
- Absolute sUA concentration, Mean (3-11) (Time 216): 3.1 mg/dL
- % sUA change (from baseline), Mean (3-11) (Time 222, post dosing): −56.1%
- Absolute sUA concentration, Mean (3-11) (Time 222, post dosing): 2.8 mg/dL
- % sUA change (from baseline), Mean (3-11) (Time 228, post dosing): −57.8%
- Absolute sUA concentration, Mean (3-11) (Time 228, post dosing): 2.7 mg/dL
- % sUA change (from baseline), Mean (3-11) (Time 240, post dosing): −48.6%
- Absolute sUA concentration, Mean (3-11) (Time 240, post dosing): 3.3 mg/dL
- % sUA change (from baseline), Mean (3-11) (Time 246, post dosing): −42.8%
- Absolute sUA concentration, Mean (3-11) (Time 246, post dosing): 3.7 mg/dL
- % sUA change (from baseline), Mean (3-11) (Time 252, post dosing): −43.6%
- Absolute sUA concentration, Mean (3-11) (Time 252, post dosing): 3.6 mg/dL
- % sUA change (from baseline), Mean (3-11) (Time 264, post dosing): −38.9%
- Absolute sUA concentration, Mean (3-11) (Time 264, post dosing): 3.9 mg/dL
- % sUA change (from baseline), Mean (3-11) (Time 270, post dosing): −36.1%
- Absolute sUA concentration, Mean (3-11) (Time 270, post dosing): 4.1 mg/dL
- % sUA change (from baseline), Mean (3-11) (Time 288, post dosing): −35.1%
- Absolute sUA concentration, Mean (3-11) (Time 288, post dosing): 4.2 mg/dL
- % sUA change (from baseline), Mean (3-11) (Time 312, post dosing): −25.9%
- Absolute sUA concentration, Mean (3-11) (Time 312, post dosing): 4.7 mg/dL
- % sUA change (from baseline), Mean (4-12) (Time 0): 0%
- Absolute sUA concentration, Mean (4-12) (Time 0): 6.2 mg/dL
- % sUA change (from baseline), Mean (4-12) (Time 6): −3.0%
- Absolute sUA concentration, Mean (4-12) (Time 6): 6.0 mg/dL
- % sUA change (from baseline), Mean (4-12) (Time 12): −9.2%
- Absolute sUA concentration, Mean (4-12) (Time 12): 5.6 mg/dL
- % sUA change (from baseline), Mean (4-12) (Time 24): 1.4%
- Absolute sUA concentration, Mean (4-12) (Time 24): 6.2 mg/dL
- % sUA change (from baseline), Mean (4-12) (Time 48): −17.6%
- Absolute sUA concentration, Mean (4-12) (Time 48): 5.1 mg/dL
- % sUA change (from baseline), Mean (4-12) (Time 72): −3.4%
- Absolute sUA concentration, Mean (4-12) (Time 72): 6.0 mg/dL
- Absolute sUA concentration (Time 96): 5.0 mg/dL (2×) and 5.1 mg/dL (2×) and 6.7 mg/dL (2×) and 6.1 mg/dL and 6.0 mg/dL and 5.5 mg/dL
- % sUA change (from baseline), Mean (4-12) (Time 96): −7.9%
- Absolute sUA concentration, Mean (4-12) (Time 96): 5.7 mg/dL
- Absolute sUA concentration (Time 102): 4.4 mg/dL and 4.9 mg/dL (2×) and 6.2 mg/dL (2×) and 5.9 mg/dL and 5.7 mg/dL and 4.6 mg/dL and 5.4 mg/dL
- % sUA change (from baseline), Mean (4-12) (Time 102): −13.2%
- Absolute sUA concentration, Mean (4-12) (Time 102): 5.4 mg/dL
- Absolute sUA concentration (Time 108): 4.1 mg/dL and 4.4 mg/dL and 4.8 mg/dL and 6.1 mg/dL and 5.9 mg/dL and 5.4 mg/dL and 5.6 mg/dL and 4.3 mg/dL and 5.0 mg/dL
- % sUA change (from baseline), Mean (4-12) (Time 108): −18.0%
- Absolute sUA concentration, Mean (4-12) (Time 108): 5.1 mg/dL
- Absolute sUA concentration (Time 120): 4.6 mg/dL and 5.0 mg/dL (2×) and 4.9 mg/dL and 6.6 mg/dL and 6.2 mg/dL (2×) and 5.8 mg/dL and 5.6 mg/dL
- % sUA change (from baseline), Mean (4-12) (Time 120): −10.3%
- Absolute sUA concentration, Mean (4-12) (Time 120): 5.5 mg/dL
- Absolute sUA concentration (Time 144): 4.6 mg/dL and 5.0 mg/dL (2×) and 4.8 mg/dL and 6.5 mg/dL and 6.2 mg/dL and 6.1 mg/dL and 5.8 mg/dL and 5.5 mg/dL
- % sUA change (from baseline), Mean (4-12) (Time 144): −11.0%
- Absolute sUA concentration, Mean (4-12) (Time 144): 5.5 mg/dL
- Absolute sUA concentration (Time 168): 5.2 mg/dL and 5.8 mg/dL and 5.6 mg/dL and 7.2 mg/dL and 6.8 mg/dL and 6.3 mg/dL and 6.5 mg/dL and 5.4 mg/dL and 6.2 mg/dL
- % sUA change (from baseline), Mean (4-12) (Time 168): −0.8%
